In the data set the test system is CCRIS mutagenicity, Ames/micronucleus/aberration tests. The data set can be described thus: CCRIS mutagenicity studies.
[1] abbreviates: Test System: AMES SALMONELLA TYPHIMURIUM, Strain/Indicator: TA98, Metabolic Activation: NONE, Method: STANDARD PLATE.
Where [2] appears, read: Test System: AMES SALMONELLA TYPHIMURIUM, Strain/Indicator: TA100, Metabolic Activation: NONE, Method: STANDARD PLATE.
The mark [3] stands for this setting: Test System: AMES SALMONELLA TYPHIMURIUM, Strain/Indicator: TA100, Metabolic Activation: NONE, Method: PREINCUBATION

Molecules are shown by their SMILES. Active and inactive are the calls of the source. How the calls were made is not given here.

`CCOCCc1c(-c2ccccc2)nc(N)n2ncnc12`: the mutagenic call by setting is: under setting [1], “inactive; negative”; (Test System: AMES SALMONELLA TYPHIMURIUM, Strain/Indicator: TA98, Metabolic Activation: RAT, LIVER, S-9, AROCLOR 1254, Method: STANDARD PLATE) “inactive; negative”; under setting [2], “inactive; negative”; (Test System: AMES SALMONELLA TYPHIMURIUM, Strain/Indicator: TA100, Metabolic Activation: RAT, LIVER, S-9, AROCLOR 1254, Method: STANDARD PLATE) “inactive; negative”; (Test System: AMES SALMONELLA TYPHIMURIUM, Strain/Indicator: TA1535, Metabolic Activation: NONE, Method: STANDARD PLATE) “inactive; negative”; (Test System: AMES SALMONELLA TYPHIMURIUM, Strain/Indicator: TA1535, Metabolic Activation: RAT, LIVER, S-9, AROCLOR 1254, Method: STANDARD PLATE) “inactive; negative”. The mutagenic call was “inactive; negative” (Test System: AMES SALMONELLA TYPHIMURIUM, Strain/Indicator: TA1537, Metabolic Activation: NONE, Method: STANDARD PLATE); “inactive; negative” (Test System: AMES SALMONELLA TYPHIMURIUM, Strain/Indicator: TA1537, Metabolic Activation: RAT, LIVER, S-9, AROCLOR 1254, Method: STANDARD PLATE); “inactive; negative” (Test System: AMES SALMONELLA TYPHIMURIUM, Strain/Indicator: TA1538, Metabolic Activation: NONE, Method: STANDARD PLATE); “inactive; negative” (Test System: AMES SALMONELLA TYPHIMURIUM, Strain/Indicator: TA1538, Metabolic Activation: RAT, LIVER, S-9, AROCLOR 1254, Method: STANDARD PLATE); “inactive; negative” (Test System: CHINESE HAMSTER OVARY, Strain/Indicator: CHO-K1-BH4 (HGPRT)/6-THIOGUANINE, Metabolic Activation: NONE); “inactive; negative” (Test System: CHINESE HAMSTER OVARY, Strain/Indicator: CHO-K1-BH4 (HGPRT)/6-THIOGUANINE, Metabolic Activation: RAT, LIVER, S-9, AROCLOR 1254). Moreover, the mutagenic call (Test System: MOUSE LYMPHOMA, Strain/Indicator: L5178Y (TK+/TK-), Metabolic Activation: NONE, Method: SUSPENSION/PLATE) was “inactive; negative”; the mutagenic call (Test System: MOUSE LYMPHOMA, Strain/Indicator: L5178Y (TK+/TK-), Metabolic Activation: RAT, LIVER, S-9, AROCLOR 1254, Method: SUSPENSION/PLATE) is “inactive; negative”; the mutagenic call (Test System: UDS RAT PRIMARY HEPATOCYTES, Strain/Indicator: THY INCORP, Metabolic Activation: NONE, Method: AUTORADIOGRAPHY) is “inactive; negative”.

For the compound `CC(=O)OC/C=C(\C)CCC=C(C)C`, the mutagenic call was “inactive; negative; precipitation occurred at 100 ug/ml” (End Point: IN VITRO CHROMOSOMAL ABERRATIONS, Test System: CHINESE HAMSTER OVARY CELLS, Metabolic Activation: NONE) and “inactive; negative; precipitation occurred at 150 ug/ml” (End Point: IN VITRO CHROMOSOMAL ABERRATIONS, Test System: CHINESE HAMSTER OVARY CELLS, Metabolic Activation: RAT, LIVER, S-9, AROCLOR 1254).

Turning to `CC(=O)Nc1ccc2c(ccc3ccccc32)c1`, the mutagenic call reads like this: (Test System: CHINESE HAMSTER OVARY, Strain/Indicator: AS52/6-THIOGUANINE, Metabolic Activation: NONE) “inactive; negative”; (Test System: CHINESE HAMSTER OVARY, Strain/Indicator: AS52/6-THIOGUANINE, Metabolic Activation: RAT LIVER S-9, 2-ACETYLAMINOFLUORINE) “active; positive”.

With `O=Nc1ccc2ccc3cc4ccccc4c4ccc1c2c34`, the mutagenic call is “active; positive” (Test System: AMES SALMONELLA TYPHIMURIUM, Strain/Indicator: TA98 (1,8-DNP6), Metabolic Activation: NONE, Method: STANDARD PLATE); “active; positive” (Test System: AMES SALMONELLA TYPHIMURIUM, Strain/Indicator: TA98 (NR), Metabolic Activation: NONE, Method: STANDARD PLATE); “active; positive” under setting [1]; “active; positive” (Test System: CHINESE HAMSTER OVARY, Strain/Indicator: CHO-K1-BH4 (HGPRT), Metabolic Activation: NONE).

In the case of `COc1c(O)cc2oc(-c3ccc(O)cc3)cc(=O)c2c1O`, the mutagenic call reads like this: (Test System: AMES SALMONELLA TYPHIMURIUM, Strain/Indicator: TA98, Metabolic Activation: NONE, Method: PREINCUBATION) “inactive; negative”; (Test System: AMES SALMONELLA TYPHIMURIUM, Strain/Indicator: TA98, Metabolic Activation: RAT LIVER S-9, SODIUM BARBITAL AND BETA-NAPHTHAFLAVONE, Method: PREINCUBATION) “inactive; negative”; under setting [3], “inactive; negative”; (Test System: AMES SALMONELLA TYPHIMURIUM, Strain/Indicator: TA100, Metabolic Activation: RAT LIVER S-9, SODIUM BARBITAL AND BETA-NAPHTHAFLAVONE, Method: PREINCUBATION) “inactive; negative”.

Turning to `CC(C)NCC(O)c1cc(O)cc(O)c1` (stereo not drawn), the mutagenic call (End Point: MORPHOLOGICAL TRANSFORMATION, Test System: SYRIAN HAMSTER EMBRYO CELLS (SHE), Metabolic Activation: NONE) was “inactive; negative”.

In the case of `COC12OOC1(C)Oc1ccccc12` (stereo not drawn), the mutagenic call under setting [3] was “active; positive”.

On to `O=[N+]([O-])c1c2c(cc3ccccc13)[C@@H](O)[C@H](O)C=C2`, for which the mutagenic call runs as follows: under setting [1], “active; positive”; (Test System: AMES SALMONELLA TYPHIMURIUM, Strain/Indicator: TA98, Metabolic Activation: RAT, LIVER, S-9, Method: STANDARD PLATE) “active; positive”; under setting [2], “inactive; negative”; (Test System: AMES SALMONELLA TYPHIMURIUM, Strain/Indicator: TA100, Metabolic Activation: RAT, LIVER, S-9, Method: STANDARD PLATE) “inactive; negative”.

Values taken from PubChem BioAssay AID1259407 (Chemical Carcinogenesis Research Information System (CCRIS), 2018).
